Among the data in patent US9045435B2, “Quinazoline compounds as sodium channel blockers” (Purdue Pharma, L.P., priority 2010, dated 2015) are IC50 values, retold here.

The target of this experiment is human Nav1.7 (Homo sapiens, UniProt Q15858). As to the kind of experiment: FLIPR or FLIPR TETRA sodium dye assay with KCl and test article pre-incubation. Format: cell-based. The following applies: sodium dye assay with KCl; recombinant Nav1.7/HEK293 cells; read-out: FLIPR Nav1.7 IC50 (μM) ± SEM.
Chain of human Nav1.7 (Q15858 1-1977 isoform Q15858-3): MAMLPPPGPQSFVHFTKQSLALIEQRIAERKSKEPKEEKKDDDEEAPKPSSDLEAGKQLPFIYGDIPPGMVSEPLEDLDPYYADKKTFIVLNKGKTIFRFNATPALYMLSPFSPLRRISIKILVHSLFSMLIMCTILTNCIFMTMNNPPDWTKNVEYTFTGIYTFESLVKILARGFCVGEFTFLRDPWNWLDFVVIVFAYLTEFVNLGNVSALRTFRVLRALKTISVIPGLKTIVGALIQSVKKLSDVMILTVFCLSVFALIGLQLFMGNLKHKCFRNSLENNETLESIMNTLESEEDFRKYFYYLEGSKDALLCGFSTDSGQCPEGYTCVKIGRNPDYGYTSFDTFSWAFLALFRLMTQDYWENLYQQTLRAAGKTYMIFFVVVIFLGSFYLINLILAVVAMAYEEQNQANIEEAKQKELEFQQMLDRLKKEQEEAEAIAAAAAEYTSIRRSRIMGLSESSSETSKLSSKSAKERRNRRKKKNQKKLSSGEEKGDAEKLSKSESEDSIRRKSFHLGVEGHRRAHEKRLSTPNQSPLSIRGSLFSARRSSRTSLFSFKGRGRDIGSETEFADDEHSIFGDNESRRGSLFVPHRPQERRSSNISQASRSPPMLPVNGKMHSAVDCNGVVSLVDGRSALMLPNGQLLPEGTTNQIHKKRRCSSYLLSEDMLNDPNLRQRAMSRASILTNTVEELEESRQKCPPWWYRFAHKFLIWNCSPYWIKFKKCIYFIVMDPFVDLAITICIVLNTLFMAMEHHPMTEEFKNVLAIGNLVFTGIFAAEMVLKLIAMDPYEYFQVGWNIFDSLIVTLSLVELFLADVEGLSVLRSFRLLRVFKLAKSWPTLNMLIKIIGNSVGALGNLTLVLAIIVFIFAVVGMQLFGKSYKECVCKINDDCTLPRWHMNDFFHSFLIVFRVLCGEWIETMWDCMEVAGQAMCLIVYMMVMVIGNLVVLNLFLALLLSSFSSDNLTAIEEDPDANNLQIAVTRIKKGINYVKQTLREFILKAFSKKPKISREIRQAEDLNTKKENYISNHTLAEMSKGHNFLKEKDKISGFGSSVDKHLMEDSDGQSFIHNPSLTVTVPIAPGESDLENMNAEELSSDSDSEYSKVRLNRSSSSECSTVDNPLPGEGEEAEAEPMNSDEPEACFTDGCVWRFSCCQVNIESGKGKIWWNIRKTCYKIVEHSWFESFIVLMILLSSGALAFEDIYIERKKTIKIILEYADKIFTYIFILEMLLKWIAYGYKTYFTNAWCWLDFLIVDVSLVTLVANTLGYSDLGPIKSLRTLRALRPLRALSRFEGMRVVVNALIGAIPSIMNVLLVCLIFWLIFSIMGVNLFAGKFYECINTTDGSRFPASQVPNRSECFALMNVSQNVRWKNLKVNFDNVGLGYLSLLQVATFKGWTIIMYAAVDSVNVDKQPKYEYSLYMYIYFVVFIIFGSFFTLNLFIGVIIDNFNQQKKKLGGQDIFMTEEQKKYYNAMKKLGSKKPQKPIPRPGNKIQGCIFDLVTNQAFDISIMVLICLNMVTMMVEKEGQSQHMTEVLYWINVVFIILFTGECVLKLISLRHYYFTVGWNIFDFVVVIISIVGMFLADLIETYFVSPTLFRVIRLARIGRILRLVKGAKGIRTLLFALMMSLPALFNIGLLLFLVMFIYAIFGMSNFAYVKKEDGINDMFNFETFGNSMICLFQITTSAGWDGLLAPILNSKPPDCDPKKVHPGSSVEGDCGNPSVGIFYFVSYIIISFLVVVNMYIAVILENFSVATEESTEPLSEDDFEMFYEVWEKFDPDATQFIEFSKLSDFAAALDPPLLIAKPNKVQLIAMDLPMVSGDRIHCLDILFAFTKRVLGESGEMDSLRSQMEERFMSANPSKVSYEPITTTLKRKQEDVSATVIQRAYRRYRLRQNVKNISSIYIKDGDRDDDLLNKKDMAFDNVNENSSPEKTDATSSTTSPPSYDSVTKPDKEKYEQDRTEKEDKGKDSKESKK
The IC50 is the concentration that gives 50% inhibition. In the case of `CCOC(=O)c1nc(-c2ccc(Oc3ccccc3)cc2)c2ccccc2n1` [Compound 3, ethyl 4-(4-phenoxyphenyl)quinazoline-2-carboxylate], the 50% inhibitory concentration (IC50) was found to be 1.57 µM.

Consider `O=C(O)c1nc(-c2ccc(Oc3ccccc3)cc2)c2ccccc2n1` [Compound 4, 4-(4-phenoxyphenyl)quinazoline-2-carboxylic acid], for which the IC50 is over 20 µM.

Regarding `OC[C@@H](O)c1nc(-c2ccc(Oc3ccc(F)cc3)cc2)c2ccccc2n1` [Compound 10, (S)-1-(4-(4-(4-fluorophenoxy)phenyl)quinazolin-2-yl)ethane-1,2-diol], the IC50 amounted to 0.849 µM.

`O=C1CN(c2nc(-c3ccc(Oc4ccc(F)cc4)cc3)c3ccccc3n2)CCN1` [Compound 13b, 4-(4-(4-(4-fluorophenoxy)phenyl)quinazolin-2-yl)piperazin-2-one]: the IC50 was found to be 0.839 µM.

As for `OCCNc1nc(-c2ccc(Oc3ccc(F)cc3)cc2)c2ccccc2n1` [Compound 13c, 2-((4-(4-(4-fluorophenoxy)phenyl)quinazolin-2-yl)amino)ethanol], the IC50 came out at 0.369 µM.

Turning to `CN(C)CCNc1nc(-c2ccc(Oc3ccc(F)cc3)cc2)c2ccccc2n1` [Compound 13d, N^1-(4-(4-(4-fluorophenoxy)phenyl)quinazolin-2-yl)-N^2,N^2-dimethylethane-1,2-diamine], the IC50 was found to be 0.317 µM.

For `Nc1nc(-c2ccc(Oc3ccc(F)cc3)cc2)c2ccccc2n1` [Compound 13e, 4-(4-(4-fluorophenoxy)phenyl)quinazolin-2-amine], the IC50 is 0.426 µM.

For the molecule `CN(N)c1nc(-c2ccc(Oc3ccc(F)cc3)cc2)c2ccccc2n1` [Compound 13g, 4-(4-(4-fluorophenoxy)phenyl)-2-(1-methylhydrazinyl)quinazoline], the IC50 is 0.309 µM.

On to `CCN1CCN(c2nc(-c3ccc(Oc4ccc(F)cc4)cc3)c3ccccc3n2)CC1` [Compound 13h, 2-(4-ethylpiperazin-1-yl)-4-(4-(4-fluorophenoxy)phenyl)quinazoline], for which the IC50 is 0.236 µM.

For the molecule `OC1CCN(c2nc(-c3ccc(Oc4ccc(F)cc4)cc3)c3ccccc3n2)CC1` [Compound 13i, 1-(4-(4-(4-fluorophenoxy)phenyl)quinazolin-2-yl)piperidin-4-ol], the IC50 stood at 0.428 µM.

On to `OCCN1CCN(c2nc(-c3ccc(Oc4ccc(F)cc4)cc3)c3ccccc3n2)CC1` [Compound 13j, 2-(4-(4-(4-(4-fluorophenoxy)phenyl)quinazolin-2-yl)piperazin-1-yl)ethanol], for which the IC50 turned out to be 0.104 µM.

`COC(=O)[C@@H]1C[C@@H](O)CN1c1nc(-c2ccc(Oc3ccc(F)cc3)cc2)c2ccccc2n1` [Compound 13m, (2S,4R)-methyl 1-(4-(4-(4-fluorophenoxy)phenyl)quinazolin-2-yl)-4-hydroxypyrrolidine-2-carboxylate]: the half-inhibitory concentration (IC50) was 0.833 µM.

Regarding `CNc1nc(-c2ccc(Oc3ccc(F)cc3)cc2)c2ccccc2n1` [Compound 13n, 4-(4-(4-fluorophenoxy)phenyl)-N-methylquinazolin-2-amine], the IC50 was determined as 0.294 µM.

Consider `Fc1ccc(Oc2ccc(-c3nc(NCCCn4ccnc4)nc4ccccc34)cc2)cc1` [Compound 13o, N-(3-(1H-imidazol-1-yl)propyl)-4-(4-(4-fluorophenoxy)phenyl)quinazolin-2-amine], for which the IC50 worked out at 0.325 µM.

For `CN(C)CCCNc1nc(-c2ccc(Oc3ccc(F)cc3)cc2)c2ccccc2n1` [Compound 13p, N^1-(4-(4-(4-fluorophenoxy)phenyl)quinazolin-2-yl)-N^3,N^3-dimethylpropane-1,3-diamine], the IC50 was found to be 0.205 µM.

As for `OC[C@@H](O)CNc1nc(-c2ccc(Oc3ccc(F)cc3)cc2)c2ccccc2n1` [Compound 13r, (S)-3-((4-(4-(4-fluorophenoxy)phenyl)quinazolin-2-yl)amino)propane-1,2-diol], the IC50 is 0.32 µM.

In the case of `NC(=O)C[C@H](Nc1nc(-c2ccc(Oc3ccc(F)cc3)cc2)c2ccccc2n1)C(N)=O` [Compound 13s, (S)-2-((4-(4-(4-fluorophenoxy)phenyl)quinazolin-2-yl)amino)succinamide], the IC50 came out at 0.313 µM.

Consider `NN(CCO)c1nc(-c2ccc(Oc3ccc(F)cc3)cc2)c2ccccc2n1` [Compound 13w, 2-(1-(4-(4-(4-fluorophenoxy)phenyl)quinazolin-2-yl)hydrazinyl)ethanol], for which the IC50 is 0.07 µM.

Take `NC(=O)CNc1nc(-c2ccc(Oc3ccc(F)cc3)cc2)c2ccccc2n1` [Compound 13x, 2-((4-(4-(4-fluorophenoxy)phenyl)quinazolin-2-yl)amino)acetamide]: the concentration for half-maximal inhibition (IC50) was over 20 µM.

`CCOc1nc(-c2ccc(Oc3ccc(F)cc3)cc2)c2ccccc2n1` [Compound 13y, 2-ethoxy-4-(4-(4-fluorophenoxy)phenyl)-quinazoline]: the IC50 came to 0.995 µM.

For the molecule `Fc1ccc(Oc2ccc(-c3nc(Oc4ccccn4)nc4ccccc34)cc2)cc1` [Compound 13z, 4-(4-(4-fluorophenoxy)phenyl)-2-(pyridin-2-yloxy)quinazoline], the IC50 was determined as 1.91 µM.
